Source: ChEMBL document CHEMBL1687741, “Population pharmacokinetics of lumefantrine in pregnant women treated with artemether-lumefantrine for uncomplicated Plasmodium falciparum malaria” (Antimicrob Agents Chemother, 2009)

Key:
Assay type in all cases: ADME, organism-based
[1] = Cmax in capillary plasma of pregnant human patient with uncomplicated multidrug-resistant Plasmodium falciparum malaria at 120 mg, po administered as 4 tablets BID for 5 days coadministered with 20 mg artemether measured on 7 days by two-compartment population pharmacokinetic model; design: dose 120 mg, route oral; conditions: female
[2] = Cmax in pregnant human patient with uncomplicated multidrug-resistant Plasmodium falciparum malaria at 120 mg, po administered as 4 tablets BID for 5 days coadministered with 20 mg artemether measured after 7 days by two-compartment population pharmacokinetic model; design: dose 120 mg, route oral; conditions: female, in vivo
[3] = Cmax in pregnant human patient with uncomplicated multidrug-resistant Plasmodium falciparum malaria at 120 mg, po administered as 4 tablets BID for 4 days coadministered with 20 mg artemether measured after 7 days by two-compartment population pharmacokinetic model; design: dose 120 mg, route oral; conditions: female, in vivo
[4] = Cmax in pregnant human patient with uncomplicated multidrug-resistant Plasmodium falciparum malaria at 120 mg, po administered as 4 tablets BID for 5 days coadministered with 20 mg artemether by two-compartment population pharmacokinetic model; design: dose 120 mg, route oral; conditions: female, in vivo
[5] = Cmax in pregnant human patient with uncomplicated multidrug-resistant Plasmodium falciparum malaria at 120 mg, po administered as 4 tablets BID for 4 days coadministered with 20 mg artemether by two-compartment population pharmacokinetic model; design: dose 120 mg, route oral; conditions: female, in vivo
[6] = Cmax in pregnant human patient with uncomplicated multidrug-resistant Plasmodium falciparum malaria at 120 mg, po administered as 4 tablets BID for 3 days coadministered with 20 mg artemether by two-compartment population pharmacokinetic model; design: dose 120 mg, route oral; conditions: female, in vivo
[7] = Drug concentration in pregnant human patient with uncomplicated multidrug-resistant Plasmodium falciparum malaria at 120 mg, po administered as 4 tablets BID for 3 days coadministered with 20 mg artemether; conditions: female, in vivo, read-out: Drug uptake
[8] = Drug concentration in pregnant human with uncomplicated multidrug-resistant Plasmodium falciparum malaria infection at 120 mg, po administered as 4 tablets BID for 3 days coadministered with 20 mg artemether; conditions: female, in vivo, read-out: Drug uptake
[9] = Drug concentration in pregnant human patient with reappeared uncomplicated multidrug-resistant Plasmodium falciparum malaria infection at 120 mg, po administered as 4 tablets BID for 3 days coadministered with 20 mg artemether; conditions: female, in vivo, read-out: Drug uptake
[10] = Drug concentration in pregnant human patient with uncomplicated multidrug-resistant Plasmodium falciparum malaria at 120 mg, po administered as 4 tablets BID for 3 days coadministered with 20 mg artemether measured after 7 days by two-compartment population pharmacokinetic model; conditions: female, in vivo, read-out: Drug uptake
Homo sapiens [11] = test: AUC (0 to infinity) in pregnant human patient with uncomplicated multidrug-resistant Plasmodium falciparum malaria at 120 mg, po administered as 4 tablets BID for 3 days coadministered with 20 mg artemether by two-compartment population pharmacokinetic model; design: dose 120 mg, time infinity, route oral; conditions: in vivo, 72 h
[12] = Terminal elimination half-life in pregnant human patient with uncomplicated multidrug-resistant Plasmodium falciparum malaria at 120 mg, po administered as 4 tablets BID for 3 days coadministered with 20 mg artemether by two-compartment population pharmacokinetic model; conditions: female, in vivo, read-out: beta t1/2 (converted)
Homo sapiens [13] = test: Volume of distribution at steady state in pregnant human patient with uncomplicated multidrug-resistant Plasmodium falciparum malaria at 120 mg, po administered as 4 tablets BID for 3 days coadministered with 20 mg artemether by two-compartment population pharmacokinetic model; conditions: in vivo, 72 h
Homo sapiens [14] = test: Absorption rate constant in pregnant human patient with uncomplicated multidrug-resistant Plasmodium falciparum malaria at 120 mg, po administered as 4 tablets BID for 3 days coadministered with 20 mg artemether by two-compartment population pharmacokinetic model; conditions: in vivo, 72 h
Homo sapiens [15] = test: Apparent peripheral volume of distribution in pregnant human patient with uncomplicated multidrug-resistant Plasmodium falciparum malaria at 120 mg, po administered as 4 tablets BID for 3 days coadministered with 20 mg artemether by two-compartment population pharmacokinetic model; conditions: in vivo, 72 h
Homo sapiens [16] = test: Intercompartmental clearance in pregnant human patient with uncomplicated multidrug-resistant Plasmodium falciparum malaria at 120 mg, po administered as 4 tablets BID for 3 days coadministered with 20 mg artemether by two-compartment population pharmacokinetic model; conditions: in vivo, 72 h
Homo sapiens [17] = test: Apparent volume of distribution in pregnant human patient with uncomplicated multidrug-resistant Plasmodium falciparum malaria at 120 mg, po administered as 4 tablets BID for 3 days coadministered with 20 mg artemether by two-compartment population pharmacokinetic model; conditions: in vivo, 72 h
Homo sapiens [18] = test: Clearance in pregnant human patient with uncomplicated multidrug-resistant Plasmodium falciparum malaria at 120 mg, po administered as 4 tablets BID for 3 days coadministered with 20 mg artemether by two-compartment population pharmacokinetic model; conditions: in vivo, 72 h
[19] = Cmax in venous plasma of pregnant human patient with uncomplicated multidrug-resistant Plasmodium falciparum malaria at 120 mg, po administered as 4 tablets BID for 5 days coadministered with 20 mg artemether measured on 7 days by two-compartment population pharmacokinetic model; design: dose 120 mg, route oral; conditions: female
Homo sapiens [20] = test: Tlag in pregnant human patient with uncomplicated multidrug-resistant Plasmodium falciparum malaria at 120 mg, po administered as 4 tablets BID for 3 days coadministered with 20 mg artemether measured after 7 days by two-compartment population pharmacokinetic model; conditions: in vivo

## CCCCN(CCCC)CC(O)c1cc(Cl)cc2c1-c1ccc(Cl)cc1/C2=C/c1ccc(Cl)cc1 (stereo not given) [LUMEFANTRINE]
[1]
  Cmax: 433 ng/mL
[2]
  Cmax: 498 ng/mL
[3]
  Cmax: 314 ng/mL
[4]
  Cmax: 2430 ng/mL
[5]
  Cmax: 2480 ng/mL
[6]
  Cmax: 2080 ng/mL
[7]
  concentration at 72 h: 135 ng/mL
[8]
  concentration at 72 h: 136 ng/mL
[9]
  concentration at 72 h: 126 ng/mL
[10]
  concentration at 168 h: 391 ng/mL
Homo sapiens [11]
  AUC: 472 µg·h/mL
[12]
  half-life: 79.2 h
Homo sapiens [13]
  Vz: 181 L
Homo sapiens [14]
  Ka: 0.0588 h⁻¹
Homo sapiens [15]
  Vp/F: 160 L
Homo sapiens [16]
  CL: 1.82 L/h
Homo sapiens [17]
  Vz: 20.2 L
Homo sapiens [18]
  CL: 6.11 L/h
[19]
  Cmax: 49 ng/mL
Homo sapiens [20]
  Time: 1.67 h
